Source: patent EP4740948A1 (Dong Wha Pharm. Co., Ltd., priority 2023, dated 2025)

Legend:
EZH2 = EZH2 (Homo sapiens, UniProt Q15910); assay: AlphaLISA enzyme activity inhibition, EZH2; assay type: biochemical; settings: for inhibition at 0.005 µM: 5nM test substance; for inhibition at 0.01 µM: 10nM test substance
Method in brief: (§1)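 Enzyme inhibition rate was calculated relative to DMSO from AlphaLISA signal, with acceptor beads added after a 2 h methylation reaction and donor beads 1 h later. Each enzyme, EZH1 or EZH2, was pre-mixed with compound (final 5 nM or 10 nM) in Tris buffer pH 8.0 before histone H3 peptide and SAM initiated the reaction.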

NCI-H1299 cells = assay: Cancer cell proliferation inhibition (Cell Counting Kit-8), lung cancer cell line; assay type: cell-based; settings: Homo sapiens, NCI-H1299, 264 h, 1000 nM, cultured seven to 11 days; read-out: % inhibition rate NCI-H129 9
Method in brief: (§2)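 After plating 100 to 1,000 cells per well in medium with 10% fetal bovine serum, each line receives 1000 nM compound and is cultured for seven to 11 days. Growth inhibition is derived from CCK-8 signal compared with control cultures.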

G401 cells = assay: Cancer cell proliferation inhibition (Cell Counting Kit-8), rhabdoid tumor cell line; assay type: cell-based; settings: 1000 nM, cultured seven to 11 days; for inhibition at 1 µM: Homo sapiens, G-401, 264 h, read-out: % inhibition rate G401; for % inhibition rate G401: 1 µM
Method in brief: (§3)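 Single 1000 nM dose of test substance, applied to cells seeded at 100–1,000 per well in 10% FBS medium, then culture for seven to 11 days. CCK-8 read-out; inhibition rate expressed as percent relative to untreated control.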

SW-13 cells = assay: Cancer cell proliferation inhibition (Cell Counting Kit-8), adrenal cancer cell line; assay type: cell-based; settings: Homo sapiens, SW13, 264 h, 1000 nM, cultured seven to 11 days; read-out: % inhibition rate SW-13
Method in brief: as §2

MIA-PaCa-2 cells = assay: Cancer cell proliferation inhibition (Cell Counting Kit-8), pancreatic cancer cell line; assay type: cell-based; settings: Homo sapiens, MIA PaCa-2, 264 h, 1000 nM, cultured seven to 11 days; read-out: % inhibition rate MIA-Paca2
Method in brief: as §2

EZH1 = EZH1 (Homo sapiens, UniProt Q92800); assay: AlphaLISA enzyme activity inhibition, EZH1; assay type: biochemical; settings: for inhibition at 0.005 µM: 5nM test substance; for inhibition at 0.01 µM: 10nM test substance
Method in brief: as §1

MKN-45 cells = assay: Cancer cell proliferation inhibition (Cell Counting Kit-8), gastric cancer cell line; assay type: cell-based; settings: Homo sapiens, MKN-45, 264 h, 1000 nM, cultured seven to 11 days; read-out: % inhibition rate MKN -45
Method in brief: as §3

Lovo cells = assay: Cancer cell proliferation inhibition (Cell Counting Kit-8), colorectal cancer cell line; assay type: cell-based; settings: 1000 nM, cultured seven to 11 days; for inhibition at 1 µM: Homo sapiens, LoVo, 264 h, read-out: % inhibition rate LoVo; for % inhibition rate LoVo: 1 µM
Method in brief: as §2

EZH2, sequence (Q15910 whole entry, species assumed): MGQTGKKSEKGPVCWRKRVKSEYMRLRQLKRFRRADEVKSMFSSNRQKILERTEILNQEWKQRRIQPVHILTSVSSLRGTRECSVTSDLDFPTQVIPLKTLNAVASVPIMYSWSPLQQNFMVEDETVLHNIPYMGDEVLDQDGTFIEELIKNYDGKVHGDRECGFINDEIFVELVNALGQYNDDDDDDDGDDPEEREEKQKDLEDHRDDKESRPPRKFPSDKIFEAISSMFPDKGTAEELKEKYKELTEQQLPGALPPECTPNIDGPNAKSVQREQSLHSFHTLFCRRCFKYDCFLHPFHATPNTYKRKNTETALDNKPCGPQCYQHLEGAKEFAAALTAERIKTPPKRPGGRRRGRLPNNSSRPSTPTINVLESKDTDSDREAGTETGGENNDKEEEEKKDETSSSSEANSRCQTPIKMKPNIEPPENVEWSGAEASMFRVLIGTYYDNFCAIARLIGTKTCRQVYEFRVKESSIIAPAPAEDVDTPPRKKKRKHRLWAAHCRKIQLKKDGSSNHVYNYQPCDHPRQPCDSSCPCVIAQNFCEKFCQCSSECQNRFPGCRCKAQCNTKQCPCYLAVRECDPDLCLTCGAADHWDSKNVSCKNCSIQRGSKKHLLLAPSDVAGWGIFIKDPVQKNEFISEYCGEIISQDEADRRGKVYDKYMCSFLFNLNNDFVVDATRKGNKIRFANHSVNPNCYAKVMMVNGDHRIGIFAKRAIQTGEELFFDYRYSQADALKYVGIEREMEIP
EZH2, sequence (O75530 whole entry partner, species assumed): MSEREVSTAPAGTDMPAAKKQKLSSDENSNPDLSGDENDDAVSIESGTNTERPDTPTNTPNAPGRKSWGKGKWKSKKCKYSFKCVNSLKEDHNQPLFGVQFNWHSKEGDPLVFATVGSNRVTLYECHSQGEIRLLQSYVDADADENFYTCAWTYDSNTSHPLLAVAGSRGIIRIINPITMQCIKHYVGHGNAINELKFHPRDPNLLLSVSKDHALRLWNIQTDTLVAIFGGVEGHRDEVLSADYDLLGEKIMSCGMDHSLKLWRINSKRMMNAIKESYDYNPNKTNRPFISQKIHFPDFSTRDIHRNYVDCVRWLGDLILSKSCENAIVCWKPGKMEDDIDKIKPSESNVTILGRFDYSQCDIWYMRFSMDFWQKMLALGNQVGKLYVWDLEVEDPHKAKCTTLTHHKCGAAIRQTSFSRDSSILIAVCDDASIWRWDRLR
EZH2, sequence (Q15022 whole entry partner, species assumed): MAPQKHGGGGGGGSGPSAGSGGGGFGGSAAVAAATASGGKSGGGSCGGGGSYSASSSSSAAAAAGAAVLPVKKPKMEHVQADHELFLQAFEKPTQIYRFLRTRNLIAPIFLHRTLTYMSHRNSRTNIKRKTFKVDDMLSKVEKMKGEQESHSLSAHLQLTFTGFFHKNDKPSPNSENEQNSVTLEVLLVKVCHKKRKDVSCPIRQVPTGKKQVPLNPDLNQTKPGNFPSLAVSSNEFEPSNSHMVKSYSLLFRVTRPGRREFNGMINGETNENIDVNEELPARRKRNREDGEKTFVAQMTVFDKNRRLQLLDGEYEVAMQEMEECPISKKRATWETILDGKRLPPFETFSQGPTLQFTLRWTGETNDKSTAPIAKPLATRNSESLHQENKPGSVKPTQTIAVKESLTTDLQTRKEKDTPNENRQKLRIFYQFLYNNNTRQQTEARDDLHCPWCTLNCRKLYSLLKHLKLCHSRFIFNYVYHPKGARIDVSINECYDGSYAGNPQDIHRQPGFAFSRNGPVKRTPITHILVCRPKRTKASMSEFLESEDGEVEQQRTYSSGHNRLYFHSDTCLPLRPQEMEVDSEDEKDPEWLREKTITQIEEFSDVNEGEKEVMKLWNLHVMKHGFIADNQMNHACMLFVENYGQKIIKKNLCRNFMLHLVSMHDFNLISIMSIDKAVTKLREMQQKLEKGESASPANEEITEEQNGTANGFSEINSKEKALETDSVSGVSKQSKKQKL
EZH1, sequence (Q92800 whole entry, species assumed): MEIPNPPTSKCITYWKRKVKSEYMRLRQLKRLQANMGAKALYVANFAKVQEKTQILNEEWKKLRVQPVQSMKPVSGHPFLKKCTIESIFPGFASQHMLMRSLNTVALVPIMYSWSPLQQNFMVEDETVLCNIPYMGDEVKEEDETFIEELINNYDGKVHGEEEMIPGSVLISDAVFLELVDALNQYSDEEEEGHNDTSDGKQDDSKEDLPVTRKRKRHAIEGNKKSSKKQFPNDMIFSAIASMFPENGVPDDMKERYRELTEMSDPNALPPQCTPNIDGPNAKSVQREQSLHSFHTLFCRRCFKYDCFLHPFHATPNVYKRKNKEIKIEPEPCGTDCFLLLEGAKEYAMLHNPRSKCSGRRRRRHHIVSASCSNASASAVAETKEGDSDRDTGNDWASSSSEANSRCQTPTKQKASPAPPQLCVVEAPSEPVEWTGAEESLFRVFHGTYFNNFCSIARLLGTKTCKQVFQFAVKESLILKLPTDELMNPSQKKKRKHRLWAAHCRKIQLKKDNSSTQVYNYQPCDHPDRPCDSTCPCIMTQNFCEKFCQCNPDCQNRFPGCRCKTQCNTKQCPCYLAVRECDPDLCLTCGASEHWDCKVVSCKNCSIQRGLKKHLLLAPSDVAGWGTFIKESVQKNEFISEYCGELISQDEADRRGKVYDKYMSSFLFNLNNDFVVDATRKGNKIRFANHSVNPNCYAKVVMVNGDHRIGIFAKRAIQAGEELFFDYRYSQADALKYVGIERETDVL
EZH1, sequence (O75530 whole entry partner, species assumed): as the sequence (O75530 whole entry partner, species assumed) above
EZH1, sequence (Q15022 whole entry partner, species assumed): as the sequence (Q15022 whole entry partner, species assumed) above

Structure (SMILES)	inhibition at 0.005 µM (EZH2)	inhibition at 0.01 µM (EZH2)	inhibition at 1 µM (NCI-H1299 cells)	inhibition at 1 µM (G401 cells)	inhibition at 1 µM (SW-13 cells)	inhibition at 1 µM (MIA-PaCa-2 cells)	inhibition at 0.005 µM (EZH1)	inhibition at 0.01 µM (EZH1)	inhibition at 1 µM (MKN-45 cells)	inhibition at 1 µM (Lovo cells)	% inhibition rate G401 (G401 cells)	% inhibition rate LoVo (Lovo cells)
CCN1CCN(c2ncc(-c3cc(C(=O)NCc4c(SC)cc(C)[nH]c4=O)c(C)c4c3OC(C)(C3CCN(CC(F)(F)F)CC3)O4)cn2)CC1 (stereo not drawn) [Compound 75, 7-(2-(4-ethylpiperazin-1-yl)pyrimidin-5-yl)-2,4-dimethyl-N-((6-methyl-4-(methylthio)-2-oxo-1,2-dihydropyridin-3-yl)methyl)-2-(1-(2,2,2-trifluoroethyl)piperidin-4-yl)benzo[d][1,3]dioxole-5-carboxamide]	79%	99.7%	≤ 30%	≥ 70%	30 to 70%	≤ 30%	61.3%	86%	30 to 70%	≥ 70%	–	–
CSc1cc(C)[nH]c(=O)c1CNC(=O)c1cc(-c2ccc(N3C[C@@H](C)O[C@@H](C)C3)nc2)c2c(c1C)OC(C)(C1CCN(CC(F)(F)F)CC1)O2 (single isomer, unassigned) [Compound 44]	96.1%	99.6%	30 to 70%	–	30 to 70%	≤ 30%	46.8%	78.2%	30 to 70%	–	+++ (+++: ≥70%)	+++ (+++: ≥70%)
CSc1cc(C)[nH]c(=O)c1CNC(=O)c1cc(-c2ccc(N3C[C@@H](C)O[C@@H](C)C3)nc2)c2c(c1C)OC(C)(C1CCN(CC(F)F)CC1)O2 (single isomer, unassigned) [Compound 47]	94.5%	99.6%	30 to 70%	–	30 to 70%	≤ 30%	68.1%	86.7%	30 to 70%	≥ 70%	+++ (+++: ≥70%)	–
CSc1cc(C)[nH]c(=O)c1CNC(=O)c1cc(-c2ccc(N3C[C@@H](C)O[C@@H](C)C3)nc2)c2c(c1C)OC(C)(C1CCN(C3CCCCC3)CC1)O2 (single isomer, unassigned) [Compound 53]	98.5%	99.6%	30 to 70%	–	30 to 70%	≤ 30%	78.3%	91.6%	≤ 30%	–	+++ (+++: ≥70%)	+++ (+++: ≥70%)
CCCCN(C)c1ccc(-c2cc(C(=O)NCc3c(SC)cc(C)[nH]c3=O)c(C)c3c2OC(C)(C2CCN(CC(F)(F)F)CC2)O3)cn1 (stereo not drawn) [Compound 98, 7-(6-(butyl(methyl)amino)pyridin-3-yl)-2,4-dimethyl-N-((6-methyl-4-(methylthio)-2-oxo-1,2-dihydropyridin-3-yl)methyl)-2-(1-(2,2,2-trifluoroethyl)piperidin-4-yl)benzo[d][1,3]dioxole-5-carboxamide]	52.2%	48.9%	≤ 30%	30 to 70%	≤ 30%	≤ 30%	30.9%	17.6%	30 to 70%	≥ 70%	–	–
COC(CN1CCC(C2(C)Oc3c(-c4ccc(N5C[C@@H](C)O[C@@H](C)C5)nc4)cc(C(=O)NCc4c(SC)cc(C)[nH]c4=O)c(C)c3O2)CC1)OC (stereo partly drawn) [Compound 41, 2-(1-(2,2-dimethoxyethyl)piperidin-4-yl)-7-(6-((2S,6R)-2,6-dimethylmorpholino)pyridin-3-yl)-2,4-dimethyl-N-((6-methyl-4-(methylthio)-2-oxo-1,2-dihydropyridin-3-yl)methyl)benzo[d][1,3]dioxole-5-carboxamide]	96.8%	–	≤ 30%	≥ 70%	≤ 30%	≤ 30%	69.1%	–	≤ 30%	≥ 70%	–	–
CSc1cc(C)[nH]c(=O)c1CNC(=O)c1cc(-c2ccc(N3C[C@@H](C)O[C@@H](C)C3)nc2)c2c(c1C)OC(C)([C@H]1CC[C@H](N(C)CC(F)F)CC1)O2 (stereo partly drawn) [Compound 109]	52.4%	91.6%	≤ 30%	≥ 70%	30 to 70%	≤ 30%	22%	35.2%	30 to 70%	≥ 70%	–	–
CCCOCCN(C)[C@H]1CC[C@H](C2(C)Oc3c(-c4ccc(N5C[C@@H](C)O[C@@H](C)C5)nc4)cc(C(=O)NCc4c(SC)cc(C)[nH]c4=O)c(C)c3O2)CC1 (stereo partly drawn) [Compound 30, 7-(6-((2S,6R)-2,6-dimethylmorpholino)pyridin-3-yl)-2,4-dimethyl-2-(trans-4-(methyl(2-propoxyethyl)amino)cyclohexyl)-N-((6-methyl-4-(methylthio)-2-oxo-1,2-dihydropyridin-3-yl)methyl)benzo[d][1,3]dioxole-5-carboxamide]	83.1%	–	≤ 30%	30 to 70%	30 to 70%	≤ 30%	80.4%	–	30 to 70%	≥ 70%	–	–
CSc1cc(C)[nH]c(=O)c1CNC(=O)c1cc(-c2ccc(N3CCCCC3)nc2)c2c(c1C)OC(C)(C1CCN(CC(F)(F)F)CC1)O2 (stereo not drawn) [Compound 91, 2,4-dimethyl-N-((6-methyl-4-(methylthio)-2-oxo-1,2-dihydropyridin-3-yl)methyl)-7-(6-(piperidin-1-yl)pyridin-3-yl)-2-(1-(2,2,2-trifluoroethyl)piperidin-4-yl)benzo[d][1,3]dioxole-5-carboxamide]	47.4%	71.6%	≤ 30%	30 to 70%	≤ 30%	≤ 30%	24.5%	41%	≤ 30%	≥ 70%	–	–
CSc1cc(C)[nH]c(=O)c1CNC(=O)c1cc(-c2ccc(N3C[C@@H](C)O[C@@H](C)C3)nc2)c2c(c1C)OC(C)([C@H]1CC[C@H](N(C)C(=O)C(F)(F)F)CC1)O2 (stereo partly drawn) [Compound 115, 7-(6-((2S,6R)-2,6-dimethylmorpholino)pyridin-3-yl)-2,4-dimethyl-N-((6-methyl-4-(methylthio)-2-oxo-1,2-dihydropyridin-3-yl)methyl)-2-(trans-4-(2,2,2-trifluoro-N-methylacetamido)cyclohexyl)benzo[d][1,3]dioxole-5-carboxamide]	37.3%	85.8%	≤ 30%	30 to 70%	≤ 30%	≤ 30%	6.1%	9.6%	≤ 30%	≥ 70%	–	–
CCN(C)c1ccc(-c2cc(C(=O)NCc3c(SC)cc(C)[nH]c3=O)c(C)c3c2OC(C)(C2CCN(CC(F)F)CC2)O3)cn1 (single isomer, unassigned) [Compound 88, 2-(1-(2,2-difluoroethyl)piperidin-4-yl)-7-(6-(ethyl(methyl)amino)pyridin-3-yl)-2,4-dimethyl-N-((6-methyl-4-(methylthio)-2-oxo-1,2-dihydropyridin-3-yl)methyl)benzo[d][1,3]dioxole-5-carboxamide]	99.5%	99.9%	≤ 30%	≥ 70%	30 to 70%	≤ 30%	45.2%	62%	30 to 70%	≥ 70%	–	–
COCCN(C)[C@H]1CC[C@H](C2(C)Oc3c(-c4ccc(OC)nc4)cc(C(=O)NCc4c(SC)cc(C)[nH]c4=O)c(C)c3O2)CC1 (relative stereo) [Compound 28, 2-(trans-4-((2-methoxyethyl)(methyl)amino)cyclohexyl)-7-(6-methoxypyridin-3-yl)-2,4-dimethyl-N-((6-methyl-4-(methylthio)-2-oxo-1,2-dihydropyridin-3-yl)methyl)benzo[d][1,3]dioxole-5-carboxamide]	99.4%	–	≤ 30%	30 to 70%	30 to 70%	≤ 30%	77.3%	–	≤ 30%	30 to 70%	–	–
